Like-named read-outs stand apart in the source and are kept apart here.
Experiments:
[1] = target: T1, α2C (Homo sapiens, UniProt P18825); test: competitive radioligand binding, HEK293 membranes
T1 construct: gene ADRA2C; full-length receptor; HEK293 cell membranes
From the text: competitive radioligand binding, HEK293 membranes on α2C

[2] = target: HRH3 (Homo sapiens, UniProt Q9Y5N1); test: cell-based; parameters: PRESTO-Tango beta-arrestin2 recruitment, luciferase luminescence, concentration-response; conditions: HTLA, Assay=Tango, agonist mode, % of control agonist
Sequence of HRH3 (Q9Y5N1 whole entry): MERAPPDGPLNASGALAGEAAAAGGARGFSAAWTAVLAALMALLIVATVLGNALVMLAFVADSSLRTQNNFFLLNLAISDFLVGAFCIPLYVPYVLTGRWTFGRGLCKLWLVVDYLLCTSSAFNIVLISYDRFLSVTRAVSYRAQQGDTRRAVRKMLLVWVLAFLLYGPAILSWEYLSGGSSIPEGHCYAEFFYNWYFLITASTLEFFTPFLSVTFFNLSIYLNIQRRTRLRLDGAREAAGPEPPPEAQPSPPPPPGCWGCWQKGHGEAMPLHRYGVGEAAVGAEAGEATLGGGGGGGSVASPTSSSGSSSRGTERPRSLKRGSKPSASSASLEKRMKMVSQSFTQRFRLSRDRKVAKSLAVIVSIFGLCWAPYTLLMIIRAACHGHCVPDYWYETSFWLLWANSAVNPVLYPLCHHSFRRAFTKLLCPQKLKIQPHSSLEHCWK
Experimental: (§1) Off-target agonism across the human GPCRome was profiled using PRESTO-Tango, following established protocols with minor adaptations [10]–[12]. […] After ~6 h recovery, cells were transfected with 20 ng plasmid DNA per well and incubated overnight. The next day, 10 µL of test compound (prepared in DMEM + 1% dFBS) was added, and plates were incubated overnight. Media and compounds were removed, and 20 µL per well of Bright-Glo luciferase reagent diluted in assay buffer (Hank’s Balanced Salt Solution (HBSS), 20 mM HEPES, pH 7.4) was added. After 20 min at room temperature (dark), luminescence was recorded. Each plate included the dopamine D2 receptor (DRD2) stimulated with 100 nM quinpirole as a positive control. For the GPCRome screen, each receptor was tested in quadruplicate at 0 and 10 µM compound (final). Responses were expressed as fold change relative to the basal (0 µM) condition. Follow-up concentration–response assays were performed under identical conditions except that serial dilutions of compounds (maximum ~30 µM, final) were added to generate full concentration–response curves.

[3] = target: T2, CHRM5 (Homo sapiens, UniProt P08912); test: cell-based; parameters: PRESTO-Tango beta-arrestin2 recruitment, luciferase luminescence, concentration-response; conditions: HTLA, Assay=Tango, agonist mode, % of control agonist
T2 sequence (P08912 1-532): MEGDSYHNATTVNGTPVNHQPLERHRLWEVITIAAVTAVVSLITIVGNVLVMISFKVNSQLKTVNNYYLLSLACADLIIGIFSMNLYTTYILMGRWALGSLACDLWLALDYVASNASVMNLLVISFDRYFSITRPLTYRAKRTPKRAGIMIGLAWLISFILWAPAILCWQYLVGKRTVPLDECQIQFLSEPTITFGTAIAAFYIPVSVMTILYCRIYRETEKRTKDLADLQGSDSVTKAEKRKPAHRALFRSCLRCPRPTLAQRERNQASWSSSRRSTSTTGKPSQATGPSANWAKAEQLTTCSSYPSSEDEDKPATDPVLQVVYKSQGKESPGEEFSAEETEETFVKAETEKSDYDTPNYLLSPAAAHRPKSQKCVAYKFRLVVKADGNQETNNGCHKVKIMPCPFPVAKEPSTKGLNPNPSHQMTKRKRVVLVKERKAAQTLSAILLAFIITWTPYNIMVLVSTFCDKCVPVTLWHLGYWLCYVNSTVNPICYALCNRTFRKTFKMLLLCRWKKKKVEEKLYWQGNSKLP
Experimental: as §1

[4] = target: CHRM3 (Homo sapiens, UniProt P20309); test: cell-based; parameters: PRESTO-Tango beta-arrestin2 recruitment, luciferase luminescence, concentration-response; conditions: HTLA, Assay=Tango, agonist mode, % of control agonist
Sequence of CHRM3 (P20309 whole entry): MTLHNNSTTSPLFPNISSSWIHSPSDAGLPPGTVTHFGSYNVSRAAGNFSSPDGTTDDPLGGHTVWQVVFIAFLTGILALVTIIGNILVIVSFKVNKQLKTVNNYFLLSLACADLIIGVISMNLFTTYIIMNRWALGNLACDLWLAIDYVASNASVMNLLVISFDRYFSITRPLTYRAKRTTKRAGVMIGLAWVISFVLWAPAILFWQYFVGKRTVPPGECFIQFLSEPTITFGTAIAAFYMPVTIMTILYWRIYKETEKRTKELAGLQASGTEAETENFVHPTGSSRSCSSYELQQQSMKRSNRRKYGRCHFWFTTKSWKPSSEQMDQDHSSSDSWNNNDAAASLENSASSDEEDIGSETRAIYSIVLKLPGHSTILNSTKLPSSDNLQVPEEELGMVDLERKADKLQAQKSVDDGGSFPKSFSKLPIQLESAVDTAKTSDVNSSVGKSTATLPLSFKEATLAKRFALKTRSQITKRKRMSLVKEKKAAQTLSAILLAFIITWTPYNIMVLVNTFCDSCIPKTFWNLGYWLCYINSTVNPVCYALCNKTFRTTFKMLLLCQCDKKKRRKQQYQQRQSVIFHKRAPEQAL
Experimental: as §1

[5] = target: T3, CHRM2 (Homo sapiens, UniProt P08172); test: cell-based; parameters: PRESTO-Tango beta-arrestin2 recruitment, luciferase luminescence, concentration-response; conditions: HTLA, Assay=Tango, agonist mode, % of control agonist
T3 sequence (P08172 1-466): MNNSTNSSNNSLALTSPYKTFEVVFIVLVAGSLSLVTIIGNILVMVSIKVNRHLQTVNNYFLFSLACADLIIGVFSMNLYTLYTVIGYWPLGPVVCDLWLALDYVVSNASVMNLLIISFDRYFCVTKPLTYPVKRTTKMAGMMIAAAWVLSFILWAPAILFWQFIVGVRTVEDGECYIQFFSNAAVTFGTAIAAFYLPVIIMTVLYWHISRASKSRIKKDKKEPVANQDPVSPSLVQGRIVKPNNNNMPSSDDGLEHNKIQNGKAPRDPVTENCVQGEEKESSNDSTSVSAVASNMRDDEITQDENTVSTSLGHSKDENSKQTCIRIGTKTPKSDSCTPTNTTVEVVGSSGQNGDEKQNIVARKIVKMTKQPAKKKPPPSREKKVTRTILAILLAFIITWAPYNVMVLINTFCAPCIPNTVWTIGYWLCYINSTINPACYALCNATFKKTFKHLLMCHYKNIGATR
Experimental: as §1

[6] = target: HTR1D (Homo sapiens, UniProt P28221); test: cell-based; parameters: PRESTO-Tango beta-arrestin2 recruitment, luciferase luminescence, concentration-response; conditions: HTLA, Assay=Tango, agonist mode, % of control agonist
Sequence of HTR1D (P28221 whole entry): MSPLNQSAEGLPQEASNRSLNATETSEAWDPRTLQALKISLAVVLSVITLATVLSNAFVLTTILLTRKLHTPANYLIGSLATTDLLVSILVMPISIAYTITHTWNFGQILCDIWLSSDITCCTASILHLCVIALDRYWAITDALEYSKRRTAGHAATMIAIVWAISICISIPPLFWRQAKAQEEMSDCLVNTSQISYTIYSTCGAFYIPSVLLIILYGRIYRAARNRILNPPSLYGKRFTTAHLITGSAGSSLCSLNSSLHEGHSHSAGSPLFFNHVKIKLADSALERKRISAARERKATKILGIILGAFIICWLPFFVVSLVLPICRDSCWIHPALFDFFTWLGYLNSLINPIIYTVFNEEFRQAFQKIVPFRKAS
Experimental: as §1

[7] = target: T4, CHRM1 (Homo sapiens, UniProt P11229); test: cell-based; parameters: PRESTO-Tango beta-arrestin2 recruitment, luciferase luminescence, concentration-response; conditions: HTLA, Assay=Tango, agonist mode, % of control agonist
T4 sequence (P11229 1-460): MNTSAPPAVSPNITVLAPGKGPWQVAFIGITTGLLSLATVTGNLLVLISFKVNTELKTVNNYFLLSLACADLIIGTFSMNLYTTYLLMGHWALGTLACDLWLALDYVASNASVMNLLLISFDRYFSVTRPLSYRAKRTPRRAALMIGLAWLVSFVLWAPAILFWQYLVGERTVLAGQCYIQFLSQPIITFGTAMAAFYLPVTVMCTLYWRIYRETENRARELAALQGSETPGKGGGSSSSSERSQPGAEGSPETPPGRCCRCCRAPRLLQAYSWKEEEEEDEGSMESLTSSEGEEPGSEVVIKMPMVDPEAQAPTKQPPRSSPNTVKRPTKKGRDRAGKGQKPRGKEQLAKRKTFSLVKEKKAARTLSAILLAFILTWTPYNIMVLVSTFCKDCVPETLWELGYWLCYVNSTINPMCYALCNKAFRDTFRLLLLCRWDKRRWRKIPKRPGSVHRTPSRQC
Experimental: as §1

[8] = target: T5, 5-HT1A (Homo sapiens, UniProt P08908); test: TRUPATH BRET2 G protein dissociation, HEK293; format: cell-based; conditions: HBSS, […] HEPES pH […] °C; agonist mode
T5 construct: gene HTR1A; full-length receptor; HEK293 with TRUPATH sensors
T5 sequence (P08908 whole entry): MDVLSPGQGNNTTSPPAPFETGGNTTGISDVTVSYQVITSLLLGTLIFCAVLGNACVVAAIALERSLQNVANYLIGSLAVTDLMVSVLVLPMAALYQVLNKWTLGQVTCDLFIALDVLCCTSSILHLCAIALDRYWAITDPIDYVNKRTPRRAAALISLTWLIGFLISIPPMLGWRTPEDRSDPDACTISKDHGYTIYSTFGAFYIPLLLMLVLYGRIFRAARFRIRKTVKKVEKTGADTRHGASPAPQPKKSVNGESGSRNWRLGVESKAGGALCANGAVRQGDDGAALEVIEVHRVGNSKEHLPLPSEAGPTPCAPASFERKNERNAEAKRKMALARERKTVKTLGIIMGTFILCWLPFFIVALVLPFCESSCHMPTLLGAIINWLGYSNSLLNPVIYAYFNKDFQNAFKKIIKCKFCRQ

[9] = target: T6, M3 (Homo sapiens, UniProt P20309); test: competitive radioligand binding, HEK293 membranes
T6 construct: gene CHRM3; full-length receptor; HEK293 with TRUPATH sensors (function)
T6 sequence (P20309 whole entry): as the sequence (P20309 whole entry) above
From the text: competitive radioligand binding, HEK293 membranes on M3

[10] = read-out: N-Desmethyl Xanomeline

T1 sequence (P18825 whole entry): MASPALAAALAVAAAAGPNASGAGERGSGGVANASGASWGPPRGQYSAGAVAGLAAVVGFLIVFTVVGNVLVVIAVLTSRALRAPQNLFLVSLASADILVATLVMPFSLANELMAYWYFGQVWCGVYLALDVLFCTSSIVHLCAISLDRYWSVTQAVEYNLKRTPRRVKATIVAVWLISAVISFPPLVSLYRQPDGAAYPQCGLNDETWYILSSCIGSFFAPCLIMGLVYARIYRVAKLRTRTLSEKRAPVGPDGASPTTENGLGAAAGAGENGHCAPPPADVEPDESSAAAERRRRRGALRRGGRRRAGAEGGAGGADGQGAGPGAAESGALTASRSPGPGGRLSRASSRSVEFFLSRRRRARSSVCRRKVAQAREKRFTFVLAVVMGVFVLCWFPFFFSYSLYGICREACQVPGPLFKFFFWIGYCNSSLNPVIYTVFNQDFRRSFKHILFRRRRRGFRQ

SMILES | Ki [1] [nM] | Emax [2, 10] [%] | Emax [3, 10] [%] | Emax [4, 10] [%] | Emax [5, 10] [%] | Emax [6, 10] [%] | Emax [7, 10] [%] | EC50 [8] | Ki [9] [nM] | Emax ([2]; read-out: Xanomeline) [%] | Emax ([3]; read-out: Xanomeline) [%] | Emax ([4]; read-out: Xanomeline) [%] | Emax ([5]; read-out: Xanomeline) [%] | Emax ([6]; read-out: Xanomeline) [%] | Emax ([7]; read-out: Xanomeline) [%]
CCCCCCOc1nsnc1C1=CCCNC1 [N-desmethylxanomeline] | 209 | 16.8 | 48.2 | 32.1 | 42.6 | 51.2 | 28.4 | full or partial agonists at 5-HT1D and 5-HT1A in a transducer-dependent fashion | 112 | – | – | – | – | – | –
CCCCCCOc1nsnc1C1=CCCN(C)C1 [Xanomeline] | 158 | – | – | – | – | – | – | full or partial agonists at 5-HT1D and 5-HT1A in a transducer-dependent fashion | 74.1 | 2.89 | 70.1 | 42.8 | 45.5 | 73.3 | 67

Source: publication doi:10.1101/2025.11.20.689572v1 (biorxiv, 2025)
